Assay results taken from patent US20240002383A1 (priority 2021, published 2024).
Entries after “also recorded” stand apart in the source; their conditions may differ.

Columns and labels:
[1] = tested on: IFNb, CXCL-10, CXCL-9, CCL-2, TNFα, IL-1β, and IL-6 in lymph nodes; assay: Innate immune response in mice after intramuscular injection of STING agonists (qPCR of cytokines in draining lymph nodes); assay type: in vivo; details: 20 μg intramuscular, 6 hrs
[2] = tested on: IFNγ, TNFα and IL-4 secretion; parameters: species or system mice; details: mouse, in vivo
HIV NHR trimer (N3G) = assay type: in vivo; details: mice, CF501 as adjuvant, sera 7 days after the second vaccination
[3] = tested on: cytokines in draining lymph nodes; details: mouse, in vivo
SARS-CoV-2 pseudovirus = tested on: SARS-CoV-2 pseudovirus; parameters: species or system New Zealand white rabbits; details: rabbit, in vivo

SMILES	production of the cytokines in lymph nodes [1]	neutralizing antibodies relative to Alum (in words) (SARS-CoV-2 pseudovirus)	other results
CCn1nc(C)cc1C(=O)Nc1nc2cc(C(N)=O)cnc2n1C/C=C/Cn1c(NC(=O)c2cc(C)nn2CC)nc2cc(C(N)=O)cc(OCCCN3CCOCC3)c21 [CF501, (E)-3-(4-(5-carbamoyl-2-(1-ethyl-3-methyl-1H-pyrazole-5-carboxamido)-7-(3-morpholinopropoxy)-1H-benzo[d]imidazol-1-yl)but-2-en-1-yl)-2-(1-ethyl-3-methyl-1H-pyrazole-5-carboxamido)-3H-imidazo[4,5-b]pyridine-6-carboxamide]	can activate a large production of the cytokines; also recorded: more potently than cGAMP	–	T cell immune response in mice [2]: can strongly activate the T cell immune response in mice; antibody immune response to the HIV NHR trimer (N3G) (HIV NHR trimer (N3G)): can significantly enhance the antibody immune response in vaccinated mice; inflammation in the mice (transient activation, safety) [3]: does not cause inflammation in the mice
CCn1nc(C)cc1C(=O)Nc1nc2cc(C(N)=O)cnc2n1C/C=C/Cn1c(NC(=O)c2cc(C)nn2CC)nc2cc(C(N)=O)cc(OCCCN3CCNCC3)c21 [CF508, (E)-3-(4-(5-carbamoyl-2-(1-ethyl-3-methyl-1H-pyrazole-5-carboxamido)-7-(3-(piperazin-1-yl)propoxy)-1H-benzo[d]imidazol-1-yl)but-2-en-1-yl)-2-(1-ethyl-3-methyl-1H-pyrazole-5-carboxamido)-3H-imidazo[4,5-b]pyridine-6-carboxamide]	–	could not induce more potent neutralizing antibodies relative to Alum in the rabbits	–
CCn1nc(C)cc1C(=O)Nc1nc2cc(C(N)=O)cnc2n1C/C=C/Cn1c(NC(=O)c2cc(C)nn2CC)nc2cc(C(N)=O)cc(OCCN3CCOCC3)c21 [CF510, (E)-3-(4-(5-carbamoyl-2-(1-ethyl-3-methyl-1H-pyrazole-5-carboxamido)-7-(2-morpholinoethoxy)-1H-benzo[d]imidazol-1-yl)but-2-en-1-yl)-2-(1-ethyl-3-methyl-1H-pyrazole-5-carboxamido)-3H-imidazo[4,5-b]pyridine-6-carboxamide]	–	could not induce more potent neutralizing antibodies relative to Alum in the rabbits	–
CCn1nc(C)cc1C(=O)/N=c1\n(C)c2cc(C(N)=O)cnc2n1C/C=C/Cn1/c(=N/C(=O)c2cc(C)nn2CC)n(C)c2cc(C(N)=O)cc(OCCCN3CCOCC3)c21 [CF512, (E)-3-((E) 4-((E)-5-carbamoyl-2-((1-ethyl-3-methyl-1H-pyrazole-5-carbonyl)imino)-3-methyl-7-(3-morpholinopropoxy)-2,3-dihydro-1H-benzo[d]imidazol-1-yl)but-2-en-1-yl)-2-((1-ethyl-3-methyl-1H-pyrazole-5-carbonyl)imino)-1-methyl-2,3-dihydro-1H-imidazo[4,5-b]pyridine-6-carboxamide]	–	could not induce more potent neutralizing antibodies relative to Alum in the rabbits	–
CCn1nc(C)cc1C(=O)Nc1nc2cc(C(N)=O)ccc2n1C/C=C/Cn1c(NC(=O)c2cc(C)nn2CC)nc2cc(C(N)=O)cnc21 [CF502, (E)-3-(4-(5-carbamoyl-2-(1-ethyl-3-methyl-1H-pyrazole-5-carboxamido)-1H-benzo[d]imidazol-1-yl)but-2-en-1-yl)-2-(1-ethyl-3-methyl-1H-pyrazole-5-carboxamido)-3H-imidazo[4,5-b]pyridine-6-carboxamide]	–	could not induce more potent neutralizing antibodies relative to Alum in the rabbits	–
Nc1nc2c(ncn2[C@@H]2O[C@@H]3COP(=O)(O)O[C@H]4[C@@H](O)[C@H](n5cnc6c(N)ncnc65)O[C@@H]4COP(=O)(O)O[C@H]3[C@H]2O)c(=O)[nH]1 [cGAMP, 3′-3′ cGAMP, reference compound]	can activate a large production of the cytokines	–	–
